Consider 15 compounds from ChEMBL document CHEMBL1201862, “PubChem BioAssay data set” (2004).

One may read the AC50 as the concentration giving half of the maximal activity seen. What is called IC50 is the point on the concentration scale where inhibition reaches its midpoint. A word on the EC50: it is the concentration giving half of the maximal effect. One may read the CC50 as the concentration at which the toxic effect on the cells reaches its halfway point.

Counter-ions that a name gives are not always drawn. Calls of active or inactive are those of the source. Bounds are passed on as bounds.

A short description of assay [1]: general cell-killing toxicity readout – plate reader, dry powder samples, cytotoxicity control for PAX8 inhibitor project, dose response (AID 743021). The assay is classed as functional, cell-based.
A further assay has as its target Paired box protein Pax-8 (Homo sapiens, UniProt Q06710). In words: PAX8 transcriptional activity inhibition in RMG-I – RMG-I cells, luciferase, cherry-pick, dose response (AID 687027).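 Also: luciferase reporter driven by Pax8 target thyroperoxidase promoter measured by SteadyGlo luminescence.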 The class given is functional, cell-based.
A further assay has as its system HEK293. Description: EBV LMP1 TES2 canonical NF-kB signalling blockers – cell-based, HEK293, luciferase, cherry-pick, dose response (AID 588343). The assay is classed as functional. The conditions noted are these: Homo sapiens.
The next assay deals with T1, Protein skinhead-1 (Caenorhabditis elegans, UniProt P34707).
T1 sequence (P34707 whole entry): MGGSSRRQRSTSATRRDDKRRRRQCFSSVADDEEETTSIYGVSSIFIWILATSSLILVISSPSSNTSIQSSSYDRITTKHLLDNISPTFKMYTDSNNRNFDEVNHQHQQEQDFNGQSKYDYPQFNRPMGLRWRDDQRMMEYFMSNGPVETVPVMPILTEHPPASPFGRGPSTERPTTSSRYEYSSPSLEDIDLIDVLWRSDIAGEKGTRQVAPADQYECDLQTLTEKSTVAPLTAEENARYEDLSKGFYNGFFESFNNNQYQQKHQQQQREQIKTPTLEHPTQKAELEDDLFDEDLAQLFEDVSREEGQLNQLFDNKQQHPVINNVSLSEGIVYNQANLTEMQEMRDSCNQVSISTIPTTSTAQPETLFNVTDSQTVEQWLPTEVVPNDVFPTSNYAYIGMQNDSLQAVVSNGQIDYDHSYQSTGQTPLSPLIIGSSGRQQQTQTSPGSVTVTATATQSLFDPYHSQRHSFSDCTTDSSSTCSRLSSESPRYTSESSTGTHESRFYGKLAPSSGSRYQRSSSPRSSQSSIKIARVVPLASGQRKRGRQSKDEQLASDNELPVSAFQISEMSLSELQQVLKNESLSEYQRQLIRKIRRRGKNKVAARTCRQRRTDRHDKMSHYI
The assay is classed as functional.

The target of assay [2] is T2, Heat shock factor protein 1 (Mus musculus, UniProt P38532).
T2 sequence (P38532 whole entry): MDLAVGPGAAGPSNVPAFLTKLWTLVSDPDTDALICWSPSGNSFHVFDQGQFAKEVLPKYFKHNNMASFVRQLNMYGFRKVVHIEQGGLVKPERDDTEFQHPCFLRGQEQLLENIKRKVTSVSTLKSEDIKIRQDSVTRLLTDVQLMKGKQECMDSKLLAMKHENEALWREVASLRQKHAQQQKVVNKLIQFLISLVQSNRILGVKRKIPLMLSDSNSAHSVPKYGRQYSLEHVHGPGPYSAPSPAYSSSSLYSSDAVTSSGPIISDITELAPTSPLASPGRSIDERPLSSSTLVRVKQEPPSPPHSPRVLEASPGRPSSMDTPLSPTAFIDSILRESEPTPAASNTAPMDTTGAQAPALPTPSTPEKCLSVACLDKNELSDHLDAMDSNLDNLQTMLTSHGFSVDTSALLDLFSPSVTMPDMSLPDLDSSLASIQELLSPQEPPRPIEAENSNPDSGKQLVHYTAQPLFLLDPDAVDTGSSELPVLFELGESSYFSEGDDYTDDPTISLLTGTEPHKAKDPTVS
Description: enhancement of HSF1-driven luciferase signal – cell-based, NIH3T3, luminescence, dose retest, confirmation (AID 435004).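 Also: stress induced by proteasome inhibitor MG132 added 30 min after compound; luciferase reporter driven by HSF1 response element in NIH3T3 cells; actives raise luminescence as potentiators of the MG132 stress response.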 The class given is functional.

Assay [3] can be described thus: THP-1 cell cytotoxicity, dose response, cytotoxicity control for non-replicating M. tuberculosis project (AID 489025). The assay is classed as functional.
The nature of assay [4]: Vero E6 cell cytotoxicity, dose response, cytotoxicity control for non-replicating M. tuberculosis project, secondary assay (AID 492998). The conditions noted are these: Vero C1008. The assay is classed as functional, VeroE6.
The nature of another assay: cells. The class given is functional.
The nature of assay [5]: HepG2 cell cytotoxicity, dose response, cytotoxicity control for non-replicating M. tuberculosis project (AID 489018). The assay is classed as functional. Conditions: Mycobacterium tuberculosis.
Assay [6] is described as follows: HEK-293T viability loss after treatment – luminescence, T-cell screen hits, cytotoxicity control for TCR NF-kB inhibitor project, dose response (AID 489026).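 Also: cells exposed to compound about 14 hours before the viability readout.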 The class given is functional, cell-based.
A further assay deals with Kallikrein-7 (Homo sapiens, UniProt P49862). In words: Fluorescence Intensity-based biochemical primary high throughput dose response assay to identify activators of kallikrein-7 (K7) zymogen.
Sequence of Kallikrein-7 (P49862 whole entry): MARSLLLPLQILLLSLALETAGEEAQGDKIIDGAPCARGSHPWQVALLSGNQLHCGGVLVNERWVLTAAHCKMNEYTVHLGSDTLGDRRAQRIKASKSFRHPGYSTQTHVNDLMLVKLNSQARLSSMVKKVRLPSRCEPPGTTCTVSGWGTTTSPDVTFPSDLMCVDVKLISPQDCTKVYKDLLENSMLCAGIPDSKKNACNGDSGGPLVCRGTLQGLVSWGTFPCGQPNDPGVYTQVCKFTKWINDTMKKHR
For assay [7], the target named is Voltage-gated inwardly rectifying potassium channel KCNH2 (Homo sapiens, UniProt Q12809). The conditions noted are these: Potency.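 Also: confirmatory quantitative high-throughput screen measuring inhibition of hERG channel activity.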
Sequence of Voltage-gated inwardly rectifying potassium channel KCNH2 (Q12809 whole entry): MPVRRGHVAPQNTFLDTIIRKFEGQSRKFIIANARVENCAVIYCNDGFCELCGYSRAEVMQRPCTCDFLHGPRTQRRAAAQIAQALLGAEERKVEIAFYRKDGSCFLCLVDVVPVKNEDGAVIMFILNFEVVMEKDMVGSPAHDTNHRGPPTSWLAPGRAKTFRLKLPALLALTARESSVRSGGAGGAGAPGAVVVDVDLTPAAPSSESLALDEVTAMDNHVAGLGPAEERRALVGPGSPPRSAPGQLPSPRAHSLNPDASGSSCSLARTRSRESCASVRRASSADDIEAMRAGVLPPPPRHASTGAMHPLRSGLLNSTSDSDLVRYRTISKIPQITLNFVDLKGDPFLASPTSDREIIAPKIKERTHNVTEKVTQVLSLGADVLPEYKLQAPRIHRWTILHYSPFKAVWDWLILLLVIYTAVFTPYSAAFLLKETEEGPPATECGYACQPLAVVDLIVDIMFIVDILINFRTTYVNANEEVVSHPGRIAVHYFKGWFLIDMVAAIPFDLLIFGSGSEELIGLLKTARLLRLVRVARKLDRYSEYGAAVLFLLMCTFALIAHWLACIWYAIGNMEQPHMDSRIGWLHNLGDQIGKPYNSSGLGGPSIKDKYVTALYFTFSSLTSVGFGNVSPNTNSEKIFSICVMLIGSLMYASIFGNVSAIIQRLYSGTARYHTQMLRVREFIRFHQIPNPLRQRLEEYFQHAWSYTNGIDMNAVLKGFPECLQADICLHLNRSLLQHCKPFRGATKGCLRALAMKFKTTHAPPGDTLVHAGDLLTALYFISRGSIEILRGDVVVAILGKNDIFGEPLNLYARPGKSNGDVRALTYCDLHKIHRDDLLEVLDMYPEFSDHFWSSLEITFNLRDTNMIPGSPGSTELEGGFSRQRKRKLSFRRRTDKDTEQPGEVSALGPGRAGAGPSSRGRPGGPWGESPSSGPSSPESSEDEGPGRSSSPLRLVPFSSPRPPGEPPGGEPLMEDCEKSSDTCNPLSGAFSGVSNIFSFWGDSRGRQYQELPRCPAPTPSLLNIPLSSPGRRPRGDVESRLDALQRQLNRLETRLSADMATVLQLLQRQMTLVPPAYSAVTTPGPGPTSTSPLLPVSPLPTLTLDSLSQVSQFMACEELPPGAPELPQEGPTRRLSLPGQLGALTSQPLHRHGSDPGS
In a further assay the target is Cytochrome P450 3A4 (Homo sapiens, UniProt P08684).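 Also: CYP3A4 tested as one member of a cytochrome P450 panel screen.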
Sequence of Cytochrome P450 3A4 (P08684 whole entry): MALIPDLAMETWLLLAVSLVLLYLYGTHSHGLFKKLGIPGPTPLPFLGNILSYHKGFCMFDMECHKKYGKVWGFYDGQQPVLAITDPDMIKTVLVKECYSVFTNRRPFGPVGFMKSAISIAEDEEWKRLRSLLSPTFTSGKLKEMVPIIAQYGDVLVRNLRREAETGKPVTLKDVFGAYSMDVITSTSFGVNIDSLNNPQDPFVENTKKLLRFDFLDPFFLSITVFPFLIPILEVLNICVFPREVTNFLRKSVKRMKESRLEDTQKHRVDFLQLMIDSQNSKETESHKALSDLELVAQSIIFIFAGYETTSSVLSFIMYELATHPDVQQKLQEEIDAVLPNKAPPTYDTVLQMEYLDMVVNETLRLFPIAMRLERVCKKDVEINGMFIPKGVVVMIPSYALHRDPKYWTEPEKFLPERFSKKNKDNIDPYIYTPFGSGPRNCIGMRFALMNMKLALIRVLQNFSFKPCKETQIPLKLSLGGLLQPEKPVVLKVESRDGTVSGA
Another assay addresses Cytochrome P450 2D6 (Homo sapiens, UniProt P10635).
In assay [8] the target is T3, Microphthalmia-associated transcription factor (Homo sapiens, UniProt O75030).
T3 sequence (O75030 whole entry): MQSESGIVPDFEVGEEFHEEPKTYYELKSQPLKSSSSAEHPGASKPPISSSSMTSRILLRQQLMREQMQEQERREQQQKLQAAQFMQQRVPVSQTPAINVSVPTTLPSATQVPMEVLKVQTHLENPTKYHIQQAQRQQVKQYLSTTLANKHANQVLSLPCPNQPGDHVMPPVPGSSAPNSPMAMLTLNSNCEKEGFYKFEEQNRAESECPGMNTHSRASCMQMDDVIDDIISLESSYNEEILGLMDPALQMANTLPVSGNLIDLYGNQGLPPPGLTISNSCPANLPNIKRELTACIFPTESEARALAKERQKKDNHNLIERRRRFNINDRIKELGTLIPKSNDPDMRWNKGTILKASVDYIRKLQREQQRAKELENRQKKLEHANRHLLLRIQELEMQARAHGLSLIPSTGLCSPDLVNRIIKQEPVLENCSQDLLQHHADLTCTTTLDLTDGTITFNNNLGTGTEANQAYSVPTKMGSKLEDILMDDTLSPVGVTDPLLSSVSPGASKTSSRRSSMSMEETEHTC
Description: reducers of TRPM1 reporter luminescence, concentration series – cell-based, SK-MEL-5, cherry-picked, set 3, MITF inhibitor project, dose response (AID 493073).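 Also: SK-MEL-5 melanoma cells with luciferase driven by the MITF target TRPM1 promoter.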 The assay is classed as functional.

Assay [9] in a line: toxicity to human HepG2 hepatoma cells – cell-based, plate reader, dry powder samples, cytotoxicity control, dose response (AID 1159569).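 Also: inhibitor potency with signal falling toward the positive control level.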 The assay is classed as functional.
The nature of assay [10]: growth inhibition of PfATP4-mutant resistant parasites – NITD609-resistant line, SYBR Green, dry powder, dose response (AID 1159571).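 Also: parasites synchronized at ring stage by sorbitol before testing.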 The assay is classed as functional, cell-based.
A short description of assay [11]: P. falciparum Dd2 growth inhibitors, dose response, SYBR Green, cherry-picked samples (AID 1159567). The assay is classed as functional, cell-based.
Assay [12] can be described thus: growth inhibition of yeast DHODH-expressing 3D7 parasites – SYBR Green, dry powder samples, dose response (AID 1159570).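 Also: parasite growth measured after 72 hours of compound exposure.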 The assay is classed as functional, cell-based.
A short description of assay [13]: Dd2 malaria parasite growth inhibition potency – SYBR Green, dry powder samples, dose response (AID 1159566).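 Also: potency for growth inhibition with lower SYBR green DNA signal.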 The assay is classed as functional, cell-based.
Assay [14] in a line: Dd2 parasite growth inhibition in erythrocytes – SYBR Green, dry powder samples, set 9, dose response (AID 1159568). The assay is classed as functional, cell-based.
Assay [15] deals with T4, Short transient receptor potential channel 4 (Mus musculus, UniProt Q9QUQ5).
T4 sequence (Q9QUQ5 whole entry): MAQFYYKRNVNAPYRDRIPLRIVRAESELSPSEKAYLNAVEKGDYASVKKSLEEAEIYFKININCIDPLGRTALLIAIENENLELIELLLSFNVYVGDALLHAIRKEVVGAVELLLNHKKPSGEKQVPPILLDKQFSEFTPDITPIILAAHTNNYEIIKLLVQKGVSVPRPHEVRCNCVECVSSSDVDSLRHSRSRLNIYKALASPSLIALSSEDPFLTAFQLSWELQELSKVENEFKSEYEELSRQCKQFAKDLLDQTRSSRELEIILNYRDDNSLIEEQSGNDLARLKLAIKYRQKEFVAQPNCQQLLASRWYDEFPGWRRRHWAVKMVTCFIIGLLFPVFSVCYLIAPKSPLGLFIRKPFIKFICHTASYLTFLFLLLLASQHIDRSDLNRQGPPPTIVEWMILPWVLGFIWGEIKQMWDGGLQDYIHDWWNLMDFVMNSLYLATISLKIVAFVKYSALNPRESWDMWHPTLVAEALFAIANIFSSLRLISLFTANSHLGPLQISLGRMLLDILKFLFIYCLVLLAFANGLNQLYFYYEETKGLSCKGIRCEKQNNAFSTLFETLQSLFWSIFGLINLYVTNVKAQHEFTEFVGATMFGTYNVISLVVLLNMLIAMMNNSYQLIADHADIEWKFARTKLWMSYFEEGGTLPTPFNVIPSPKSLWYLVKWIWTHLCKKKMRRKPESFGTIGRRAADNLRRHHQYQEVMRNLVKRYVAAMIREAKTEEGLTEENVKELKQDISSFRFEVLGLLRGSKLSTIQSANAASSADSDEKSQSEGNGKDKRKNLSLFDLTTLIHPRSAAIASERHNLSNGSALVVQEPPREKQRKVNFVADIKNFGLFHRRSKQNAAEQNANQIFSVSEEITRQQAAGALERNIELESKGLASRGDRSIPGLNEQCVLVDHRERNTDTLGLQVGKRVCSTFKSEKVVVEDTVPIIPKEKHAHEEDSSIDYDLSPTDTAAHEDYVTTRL
Description: calcium entry via TRPC4 opening agents – cell-based, HEK293 TRPC4/mu-opioid, Fluo-4 calcium, dose response (AID 434937). The class given is functional.

Sequence of Paired box protein Pax-8 (Q06710 whole entry): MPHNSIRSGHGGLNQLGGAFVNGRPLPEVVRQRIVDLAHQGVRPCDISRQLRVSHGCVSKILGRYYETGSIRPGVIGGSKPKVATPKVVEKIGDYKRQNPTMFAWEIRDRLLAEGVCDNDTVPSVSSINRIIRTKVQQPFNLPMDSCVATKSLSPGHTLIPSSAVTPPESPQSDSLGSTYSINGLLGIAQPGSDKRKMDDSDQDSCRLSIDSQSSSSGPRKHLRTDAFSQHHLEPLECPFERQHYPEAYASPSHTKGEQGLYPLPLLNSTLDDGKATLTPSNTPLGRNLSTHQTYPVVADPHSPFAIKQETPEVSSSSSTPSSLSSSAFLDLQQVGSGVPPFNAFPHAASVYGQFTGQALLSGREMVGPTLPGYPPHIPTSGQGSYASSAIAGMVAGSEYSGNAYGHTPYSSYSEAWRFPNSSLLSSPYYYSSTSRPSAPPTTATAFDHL
Sequence of Cytochrome P450 2D6 (P10635 whole entry): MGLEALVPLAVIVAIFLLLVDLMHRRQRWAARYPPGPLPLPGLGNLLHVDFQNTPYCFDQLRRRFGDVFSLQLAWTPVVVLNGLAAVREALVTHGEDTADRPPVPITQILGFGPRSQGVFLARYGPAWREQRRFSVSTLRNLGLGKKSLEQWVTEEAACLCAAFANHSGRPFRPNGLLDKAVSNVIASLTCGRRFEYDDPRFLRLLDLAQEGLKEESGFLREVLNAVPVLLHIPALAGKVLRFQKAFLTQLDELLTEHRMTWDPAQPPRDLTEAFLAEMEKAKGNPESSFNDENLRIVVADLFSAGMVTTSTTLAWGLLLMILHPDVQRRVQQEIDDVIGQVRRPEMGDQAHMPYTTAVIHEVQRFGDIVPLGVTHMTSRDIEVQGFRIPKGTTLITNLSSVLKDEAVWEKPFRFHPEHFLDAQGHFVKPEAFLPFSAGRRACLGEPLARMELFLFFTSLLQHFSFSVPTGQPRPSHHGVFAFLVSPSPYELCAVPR

`O=c1cc(-c2ccccc2)oc2ccc3ccccc3c12` [BETA-NAPHTHOFLAVONE]: the AC50 in assay [1] is 29.2 µM (active); on Paired box protein Pax-8 it was 5.9 µM (active); in the assay with HEK293 it was 0.646 µM (active). The IC50 on Protein skinhead-1 was > 100 µM (inactive).
Consider `COc1ccc(C(CCNCc2ccccc2)c2ccc(F)cc2)cc1` (stereo unspecified), for which the EC50 in [2] is > 260 µM (inactive). Besides, the CC50 in assay [3] is 11.7 µM (active); in [4], 18 µM (active); in assay [5] it was 14.6 µM (active). For the same compound, in the assay “cells”, the IC50 is 18.7 µM (active).
Consider `Cc1ccc(O)c(NC(=O)c2cc(-c3ccccc3)on2)c1`, for which, in assay [6], the IC50 was > 80 µM (inactive).
Regarding `Oc1nc(-c2ccccc2Cl)c2cc(F)ccc2n1`, the EC50 on Kallikrein-7 is > 69.5 µM (inactive).
On to `CN(C)CCC(c1ccccc1)c1ccccn1` (stereo unspecified) [PHENIRAMINE MALEATE], for which the concentration at half-maximal activity (AC50) in assay [7] is 15.8 µM (inconclusive).
Consider `COc1ccc(NC(=O)/C=C/c2ccc(Cl)cc2)cc1`, for which the AC50 in [7] is 25.1 µM (inconclusive).
Turning to `Nc1c(Cl)cc(Cl)cc1C(=O)OCC(=O)N1CCCC1`, at Kallikrein-7, the EC50 was > 69.5 µM (inactive).
On to `Cn1cnc2c(NC3CCCC3)ncnc21`, for which the AC50 was 25.1 µM (inconclusive) at Cytochrome P450 3A4, 20 µM (inconclusive) on Cytochrome P450 2D6 and 1.41 µM (inconclusive) in assay [7].
As to `Cc1onc(-c2ccccc2)c1C(=O)N/N=C/c1ccc([N+](=O)[O-])s1`, the figures for the cytotoxic concentration (CC50) in assay [3], in assay [4] and in assay [5] were 13.5 µM (active), 11.4 µM (active) and 18.8 µM (active), respectively. Moreover, in “cells”, the IC50 was 14.9 µM (active). The AC50 in assay [8] was 5.35 µM (active).
On to `Cc1c(C2(O)CCCCC2)[nH]c2cnccc12`, for which the EC50 at Kallikrein-7 was > 69.5 µM (inactive).
In the case of `COc1ccc(-c2ccc3c(c2)[C@H]2[C@H](CCN2C(=O)C2CCCC2)[C@H](CO)N3C)cc1`, the concentration at half-maximal activity (AC50) in [9] is 16.1 µM (active); in [10], 1.97 µM (active); in assay [11], 1.87 µM (active); in [12], 2.27 µM (active); in assay [13], 1.42 µM (active).
`C[C@H]1CN([C@@H](C)CO)C(=O)c2cc(/C=C/c3ccccc3)cnc2O[C@@H]1CN(C)C(=O)C1CCCCC1`: the AC50 in [9] is > 100 µM (inactive); in assay [10], 0.464 µM (active); in assay [11], 0.54 µM (active); in assay [14] it was 0.082 µM (active); in assay [12], 0.905 µM (active); in [13], 0.291 µM (active).
Consider `CCOC(=O)N1CCC2(CC1)NC(=O)c1ccccc1N2`, for which the EC50 at Kallikrein-7 is > 69.5 µM (inactive).
For `CC(C)NC(=O)N1[C@H](C#N)[C@H](c2ccc(C#CC3CCCCC3)cc2)[C@@H]1CO`, the concentration at half-maximal activity (AC50) was 28.6 µM (active) in [9]; 0.676 µM (active) in assay [10]; 0.99 µM (active) in [11]; 0.148 µM (active) in [14]; 1.58 µM (active) in assay [12]; 0.495 µM (active) in assay [13].
`Cc1ccc(-n2cc(CNCCc3nc(C)c[nH]3)c(-c3ccc(F)cc3)n2)cc1`: the results for the half-maximal cytotoxic concentration (CC50) in [3], in assay [4] and in [5] were 24.1 µM (active), 17.4 µM (active) and 16.7 µM (active), respectively. Besides, the EC50 in assay [15] was 6.68 µM (active). Besides, the IC50 in “cells” is 11.5 µM (active).
